The source of these data is paper PMC4188605, “Biochemical and Pharmacological Characterization of the Human Lymphocyte Antigen B-Associated Transcript 5 (BAT5/ABHD16A)” (PLoS ONE, 2014).

Entries after “also recorded” stand apart in the source; their conditions may differ.

One assay has as its target T1, hABHD6 (Homo sapiens, UniProt Q9BV23).
T1 construct: expressed in transfected cells; host or cells: HEK293
T1 sequence (Q9BV23 1-337): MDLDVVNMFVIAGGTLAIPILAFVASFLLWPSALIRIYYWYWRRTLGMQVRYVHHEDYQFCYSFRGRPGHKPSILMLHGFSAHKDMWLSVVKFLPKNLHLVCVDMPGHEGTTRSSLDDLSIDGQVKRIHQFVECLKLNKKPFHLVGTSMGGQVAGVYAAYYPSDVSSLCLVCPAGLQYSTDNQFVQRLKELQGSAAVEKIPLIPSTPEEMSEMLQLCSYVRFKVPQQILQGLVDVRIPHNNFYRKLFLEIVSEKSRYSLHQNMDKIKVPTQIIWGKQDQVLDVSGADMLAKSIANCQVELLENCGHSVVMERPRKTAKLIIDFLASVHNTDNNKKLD
As to the kind of experiment: Hydrolase activity assay, hABHD6-HEK lysates. Format: biochemical. The note with it: hABHD6-HEK lysates; read-out: IC50.

For the next assay, the target named is T2, hBAT5 (Homo sapiens, UniProt O95870).
T2 sequence (O95870 1-558): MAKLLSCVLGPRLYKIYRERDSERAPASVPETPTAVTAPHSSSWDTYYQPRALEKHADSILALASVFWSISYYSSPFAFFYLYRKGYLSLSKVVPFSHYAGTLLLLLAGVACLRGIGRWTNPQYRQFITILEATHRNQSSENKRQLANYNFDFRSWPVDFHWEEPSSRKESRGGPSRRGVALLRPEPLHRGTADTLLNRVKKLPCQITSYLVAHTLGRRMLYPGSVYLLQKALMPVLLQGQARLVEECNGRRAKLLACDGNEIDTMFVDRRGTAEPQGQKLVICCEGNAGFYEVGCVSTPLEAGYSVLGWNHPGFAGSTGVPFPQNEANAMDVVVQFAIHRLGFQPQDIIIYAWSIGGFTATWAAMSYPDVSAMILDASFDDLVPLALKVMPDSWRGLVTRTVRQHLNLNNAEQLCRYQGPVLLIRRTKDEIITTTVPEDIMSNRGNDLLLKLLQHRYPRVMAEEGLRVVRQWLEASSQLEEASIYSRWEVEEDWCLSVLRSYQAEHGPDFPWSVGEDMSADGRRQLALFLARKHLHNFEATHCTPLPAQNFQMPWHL
The assay can be described thus: Inhibition of 1-LG hydrolysis in hBAT5-HEK293 lysates (fluorescent glycerol assay). The note with it: 1-LG 25 µM; 30 min inhibitor pretreatment; monitored 90 min; mean, n=3; read-out: IC50. Format: biochemical. More on the design: host or cells: HEK293.

In a further assay the test system is LYPLA1/2. The assay can be described thus: Competitive ABPP, mouse brain membrane proteome: LYPLA1/2 band. The note with it: tested concentration range 10^−8–10^−5 M.
In the next assay the test system is LYPLA1. More on the design: method as in PMID 20418879. The note with it: originally reported; read-out: IC50 in vitro towards LYPLA1; cited from earlier work.

What is called IC50 is the concentration that inhibits the measured activity by half. Consider `CCCCCCCCCC[C@@H]1C(=O)O[C@H]1CCc1ccc(OC)c(OC)c1` [Palmostatin B, palmostatin B], for which the IC50 on hABHD6 is 0.0525 µM; on hBAT5 it was 0.1 µM; in the assay on LYPLA1, 0.67 µM. Moreover, the “inhibition of probe binding to LYPLA1/2” value in the assay on LYPLA1/2 is listed as “dose-dependently inhibited probe binding; also recorded: dose-dependently inhibits probe labeling”.
